Assays:
[1] = biological target: T1, Cdk2(WT) (Homo sapiens, UniProt P24941); experiment: TdCD melting temperature of acrylamide-modified Cdk2; type: binding; design: made in house; host or cells: E. coli Tuner(DE3); settings: compound-modified Cdk2(WT), n=3
Method: (§1) GSTBCdk2" and" GSTBcyclin" A2:! Harvested! cells! were! resuspended! in! 50! mM! HEPES! buffer! (pH7.5)! containing! 150! mM! NaCl,!
(§2) 10!mM!MgCl2,!2!mM!dithiothreitol!(DTT),!0.5!mg!mLR1!lysozyme,!and!0.01%!Triton!XR100!at!4!˚C!and!incubated!for!30!minutes.!
(§3) After! sonication! and! centrifugation! (40! min,! 16000! g),! the! supernatant! was! incubated! for! 1! h! with! glutathioneRSepharose!
(§4) beads,! washed! with! lysis! buffer! and! the! desired! protein! eluted! with! 10! mM! GSH! (100! mM! Tris,! pH! 8).! After! incubation! the! deR
(§5) sired! protein! was! cleaved! from! the! GST! tag! with! PreScission! protease! (100:1)! at! 4 °C! for! 4! hours,! the! cleaved! GST! tag! was!
(§6) removed! with! glutathioneRSepharose! beads.! Cdk2! was! concentrated! and! then! loaded! onto! a! Superdex! 75! (16/60)! column,!
(§7) eluting! with! 100! mM! phosphate! buffer! containing! 50! mM! DTT.! Purified! Cdk2! was! concentrated! to! 10! mg! mLR1!and! stored! at!–
(§8) 80! ˚C.! Cyclin! A2! was! purified! by! glutathioneRSepharose! affinity! as! described! above! with! the! following! amendments:! 100! mM!
(§9) MgCl2!was! added! after! GST! cleavage! to! minimise! protein! aggregation! and! gel! filtration! was! performed! with! 50! mM! HEPES!
buffer! (pH! 7.5)! containing! 150! mM! NaCl,! 100! mM! MgCl2,! 2! mM! DTT.! ! […]
labelling! reached! completion! (as! monitored! by! fluorescence! quench! assay! and/or! intact! protein! mass! spectrometry).! […]

[2] = biological target: T1, Cdk2(WT); experiment: In vitro kinase assay (NADH-coupled) of ligand-conjugated pCdk2 with Cyclin A2; type: biochemical; design: GST (N, cleaved yes); made in house; host or cells: E. coli Tuner(DE3); settings: for Kinase activity ± s.e.m relative to Cdk2(WT): n=3
Method: Hs!Cyclin!A2!F!5’![…]!
Hs!Cyclin!A2!R!5’![…]!
Sc!CAK1!R!5’!GAATTCttatgggcttttctaattcttgcaag!
as §1, §2, §3, §4, §5, §6, §7, §8, §9
buffer! (pH! 7.5)! containing! 150! mM! NaCl,! 100! mM! MgCl2,! 2! mM! DTT.! ! GSTRCAK1! was! also! purified! using! the! glutathioneR
Sepharose!affinity!workflow,!however!no!protease!or!gel!filtration!steps!were!performed!and!the!enzyme!was!used!crude.!
His6BCdk2:! Cell! lysis! was! performed! as! above! with! the! addition! of! 30! mM! imidiazole! to! the! lysis! buffer.! Following! sonication!
the! supernatant! was! incubated! for! 1! hour! with!nickel! sulfate! charged! NTA! agarose! beads,! washed! with! lysis!buffer! suppleR
mented!with!50!mM!imidiazole!and!then!His6RCdk2!eluted!with!lysis!buffer!containing!500!mM!imidiazole.!After!dialysis!against!
100! mM! phosphate! buffer! (pH! 8)! containing! 1! mM! DTT,! His6RCdk2! was! concentrated! and! loaded! onto! a! Superdex! 75! (16/60)!
column,!eluting!with!100!mM!phosphate!buffer!(pH!8)!without!reducing!agent."
I., Acrylamide, labelling, of, Cdk2, for, crystallography, TdCD, kinase, assays, and, intact%
protein,mass,spectrometry,
Cdk2! (10! µM)! was! reacted! with! acrylamide! ligands! at! 500! µM! in! 100! mM! phosphate! buffer! (pH! 8)! containing! 1%! DMSO,! until!
labelling! reached! completion! (as! monitored! by! fluorescence! quench! assay! and/or! intact! protein! mass! spectrometry).! Excess!
ligand! was! subsequently! removed! by! serial! dilution! and! concentration! (×5)! into! the!appropriate! buffer! using! Amicon! UltraR0.5!
centrifugal!filter!devices!(MW!cutRoff!=!10!kDa).!
J.,Intact%protein,mass,spectrometry, […]

[3] = qIT (quantitative irreversible tethering) thiol consumption assay with glutathione; settings: compound 0.5 mM, glutathione 5 μM, TCEP-agarose 2 % w/v
Method: To measure the kinetics of electrophile‐thiol conjugation we developed quantitative irreversible tethering (qIT), a technique which employs fluorogenic thiol quantification (FTQ) in a high‐throughput thiol consumption assay (Figure 1 a). […] We solved this problem using an immobilized reducing agent (TCEP‐agarose, 2 % w/v), allowing facile separation by centrifugation before conducting the FTQ step (Figure 1 b).
The target thiol (5 μM) is reacted with electrophilic fragments (0.5 mM) under pseudo‐first‐order conditions in the presence of TCEP‐agarose (2 % w/v). Reaction progress is followed by discrete measurements of residual target thiol concentration using the fluorogenic probe CPM and rate constants are derived from exponential regression analysis. b) TCEP‐agarose prevents aerobic thiol oxidation. Glutathione solutions were stored ±TCEP‐agarose (2 % w/v).
Electrophiles were individually reacted with glutathione under pseudo‐first‐order conditions in the presence of TCEP‐agarose. […] Fluorescence measurements were normalized against a DMSO control and exponential regressions used to determine rate constants.
ReactionBplate" setup:!Each! well! of! a! 96Rwell! PCR! plate! was! charged! with! 60–100! µL! of! target! thiol! (GSH! or! protein,! 10! µM)!
and! 4%! w/v! TCEPRagarose! beads! in! 100! mM! phosphate! buffer! (pH! 7.5! or! 8)! and! cooled! to! 4! ˚C.! Reactions! were! started! by!
addition! of! an! equal! volume! of! preRcooled! electrophile! solution! (1! mM,! 2%! DMSO)! in! 0.1! M! phosphate! buffer! (final! concentraR
tion:! thiol! =! 5! µM,! electrophile! =! 0.5! mM,! 2%! w/v! TCEPRagarose! beads),! with! a! minimum! of! 4! wells! per! plate! used! as!
DMSO/thiol! only! controls.! After! mixing,! TCEPRagarose! was! pelleted! by! centrifugation! (1,300! rpm,! 1! min)! and! the! plate! incuR
bated!at!4!˚C.,CPM"Quench:! At! a! series! of! time! points!

[4] = Cdk2(WT) completely modified with compound

SMILES: C=CC(=O)N1CCN(C(=O)OC)c2ccccc21 [Acrylamide 2]
- Tm ± s.e.m [1]: 50.56 ± 0.24 ˚C
- Kinase activity ± s.e.m relative to Cdk2(WT) [2, 4]: 96.6±5.6%
- inhibition of kinase activity (in words) ([2]; Cdk2(WT) modified with compound): no significant inhibition
- k GSH (pseudo-first-order rate constant) [3]: 0.089 h⁻¹

SMILES: C=CC(=O)N1CCN(C(=O)OC(C)(C)C)c2ccccc21 [Acrylamide 1]
- Tm ± s.e.m [1]: 48.95 ± 0.25 ˚C
- inhibition of kinase activity [2, 4]: about 83%
- Kinase activity ± s.e.m relative to Cdk2(WT) [2, 4]: 16.8±3.1%
- k GSH (pseudo-first-order rate constant) [3]: 0.041 h⁻¹
